Source: patent publication US20160346219A1, “PHOSPHOLIPID-COATED THERAPEUTIC AGENT NANOPARTICLES AND RELATED METHODS” (Autotelic LLC, priority 2015, published 2016)

Assay: Screening of lyoprotectants for stabilization of nanoparticles on lyophilization (particle size before lyophilization and after reconstitution)
Type: physicochemical
Conditions: single lyoprotectant, amounts 5-20% (FIG. 15)
Source text: FIG. 15 compares particle size as a function of lyoprotectant and lyoprotectant amount for representative phospholipid-coated therapeutic agent (paclitaxel) nanoparticles of the invention, PC-coated paclitaxel nanoparticle manufactured by thin film-hydration method (LM-101), before lyophilization and after reconstitution.

OC[C@H]1O[C@H](O[C@H]2O[C@H](CO)[C@@H](O)[C@H](O)[C@H]2O)[C@H](O)[C@@H](O)[C@@H]1O [Trehalose]
stabilization of particles on lyophilization (lyoprotectant): best in stabilizing the particles on lyophilization
